Reference: patent US8168645B2, “Arylsulfonamide compounds” (Genentech, Inc., priority 2006, dated 2012)

Tests used:
SCLC cell line NCI-H889 = test: CellTitre-Glow luminescent cytotoxicity assay, NCI-H889; assay type: cell-based; conditions: Homo sapiens; NCI-H889 cells, 48 hr incubation
Procedure: (§1) • 1. SCLC cell lines NCI-H889, NCI-H1963, and NCI-H146 were purchased from American Type Culture Collection. Cells were maintained in RPMI 1640 (Invitrogen Corp., Grand Island, N.Y.) supplemented with 10% fetal bovine serum (FBS, Invitrogen), 1% sodium pyruvate, 25 mM HEPES, 4.5 g/L glucose and 1% penicillin/streptomycin (Sigma) in a humidified chamber at 37° C. containing 5% CO2. • 2. cells were grown as suspension aggregates in a T162 flask with 25 ml medium and kept at concentration of 1 million/mL. Test Compound Stocks: • 1. test compounds were prepared as 10 mM stocks in DMSO and stored at −20° C. Test Compound Serial Dilutions: • 1. prewarmed medium to 37° C. • 2. thawed compounds to room temperature. • 3. determined what will be the highest concentration to be tested. (i.e. 10 μM). • 4. prepared a 2× stock in culture medium of the first dose (i.e. 2×10 μM=20 μM) in an Eppendorf tube (i.e. 4 μl of 5 mM stock into 1000 μl=20 μM). • 5. inverted tube several times to mix. […] Columns 1-10 comprised the serial test compound treatments, column 11 was the untreated control and column 12 was the ‘no cell’ control for determining the background. • 1. in a 96 well plate was added 50 μl medium/well in columns 2 thru 11 and 100 μl was added to column 12. • 2. in column 1 was added 100 μl of 2× compound. • 3. made serial dilutions by transferring 50 μl to column 2, and so on up to column 10. After adding 50 μl to column 10 and mixing, discarded 50 μl. • 4. stored plates at 37° C. until ready to add cells. Cell Preparation • 1. Cell were washed one time in the culture medium and prepared as a suspension. • a. cell were first spun down to remove the medium and then ˜1 ml 0.25% trypsin was added and gently mixed and incubated for no more than three minutes at room temperature. • b. ˜10 ml of the medium was added and the cells were gently pipetted several times. • c. cells were then counted and spun down to the volume necessary for the total cell number needed, then resuspended in the medium to 200 cells/μl concentration (50,000 cells/well). • 2. […]

GST tagged Mcl-1 protein = GST tagged Mcl-1 protein (Homo sapiens, UniProt Q07820); test: Alphascreen competition binding assay, GST tagged Mcl-1 vs biotinylated Bak BH3 peptide; conditions: competition with Bak BH3 peptide; unit inferred
Sequence of GST tagged Mcl-1 protein (Q07820 whole entry): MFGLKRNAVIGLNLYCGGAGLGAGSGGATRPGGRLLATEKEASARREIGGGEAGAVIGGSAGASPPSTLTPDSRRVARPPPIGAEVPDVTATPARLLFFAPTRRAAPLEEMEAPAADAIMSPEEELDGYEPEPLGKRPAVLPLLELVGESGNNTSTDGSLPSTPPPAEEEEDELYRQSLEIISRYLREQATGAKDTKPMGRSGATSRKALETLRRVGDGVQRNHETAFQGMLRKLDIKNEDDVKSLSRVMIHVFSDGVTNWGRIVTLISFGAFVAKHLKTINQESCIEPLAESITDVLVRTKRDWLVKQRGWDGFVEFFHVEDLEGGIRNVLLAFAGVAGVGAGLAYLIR
Excerpt: (§2) Measurement of competition of compounds of the invention with Bim26-mer for a Bcl-2 homologue binding site.
(§3) Alphascreen (Amplified Luminescent Proximity Homogenous Assay) is a bead based technology which measures the interaction between molecules. The assay consists of two hydrogel coated beads which, when bought into close proximity by a binding interaction, allow the transfer of singlet oxygen from a donor bead to an acceptor bead.
(§4) Upon binding and excitation with laser light at 680 nm, a photosensitizer in the donor bead converts ambient oxygen to a more excited singlet state. This singlet oxygen then diffuses across to react with a chemiluminescer in the acceptor bead. Fluorophores within the same bead are activated resulting in the emission of light at 580-620 nm.
(§5) Screening of the compounds of the invention was performed using the Alphascreen GST (glutathione s-transferase) detection kit system. Test compounds were titrated into the assay which consisted of GST tagged Bclw ΔC29 protein (0.05 nM Final concentration) and Biotinylated Bim BH3-26 peptide, Biotin-[…] (3.0 nM Final concentration). For the GST tagged BCl-xL assay, GST tagged BCl-xL ΔC25 protein (0.6 nM Final concentration) and Biotinylated Bim BH3-26 peptide, Biotin-[…] (5.0 nM final concentration) were used. To this reaction mix anti-GST coated acceptor beads and Streptavidin coated donor beads, both at 15 μg/ml Final concentration, were added and the assay mixture incubated for 4 hours at room temperature before reading. Similarly when the Bcl-2 protein was Mcl-1, GST tagged Mcl-1 protein (0.4 nM Final concentration) and Biotinylated Bak BH3 peptide, Biotin-[…]-OH (4.0 nM Final concentration) were used.
(§6) • 1) prepare a 384 well with 4.75 μL of buffer and 0.25 μL of compounds (20 mM in DMSO) per well. • 2) Mix the binding partners, in one tube add Bcl-w, BCl-xL or Mcl-1 and the acceptor beads, in the second tube add Biotinylated BH3 peptide and the donor beads. • 3) Pre-incubate the two pairs of binding partners for 30 minutes. • 4) Add 1 μL of acceptor beads:Bcl-w, BCl-xL or Mcl-1 protein mix to each well. • 5) Seal the plate and incubate at room temperature for 30 minutes. • 6) Add 10 μL of donor bead:BH3 peptide mix to each well. • 7) Seal the plate, cover with foil and incubate for 4 hours.
(§7) Assay buffer contained 50 mM Hepes pH 7.4, 10 mM DTT, 100 mM NaCl, 0.05% Tween and 0.1 mg/ml casein. Bead dilution buffer contained 50 mM Tris, pH 7.5, 0.01% Tween and 0.1 mg/ml casein. The final DMSO concentration in the assay was 0.5%. Assays were performed in 384 well white Optiplates and analyzed on the PerkinElmer Fusion alpha plate reader (Ex680, Em520-620 nM).
(§8) The GST Alphascreen detection kit and Optiplates were purchased from PerkinElmer.

SCLC cell line NCI-H1963 = test: CellTitre-Glow luminescent cytotoxicity assay, NCI-H1963; assay type: cell-based; conditions: Homo sapiens; NCI-H1963 cells, 48 hr incubation
Procedure: as §1

SCLC cell line NCI-H146 = test: CellTitre-Glow luminescent cytotoxicity assay, NCI-H146; assay type: cell-based; conditions: Homo sapiens; NCI-H146 cells, 48 hr incubation
Procedure: as §1

[1] = tested on: mouse embryo fibroblasts (MEFs): wild type, Bax/Bak double knockout, Noxa-expressing, Bad-expressing; test: Cell viability assay on mouse embryo fibroblasts (propidium iodide uptake); assay type: cell-based; conditions: propidium iodide uptake after 24 hours, FIG. 1A/1B
Procedure: FIG. 1 graphically depicts the effect of Compound 1 (FIG. 1A) and Etoposide (FIG. 1B), at increasing concentrations, on the % viability of certain mouse embryo fibroblast (MEF) cells as assessed by propidium iodide uptake after 24 hours. Noxa and Bad were introduced by retrovirally infecting the cells with pMIG retroviruses as described by Chen et al., 2005.
The efficacy of the compounds of the present invention can also be determined in cell based killing assays using a variety of cell lines and mouse tumor models. For example, their activity on cell viability can be assessed on a panel of cultured tumorigenic and non-tumorigenic cell lines, as well as primary mouse or human cell populations, e.g. lymphocytes. For these assays, 5,000-20,000 cells are cultured at 37° C. and 10% CO2 in appropriate growth media, eg: 100 μL Dulbecco's Modified Eagle's medium supplemented with 10% foetal calf serum, asparaginase and 2-mercaptoethanol in the case of pre-B Eμ-Myc mouse tumors in 96 well plates. […] Cell viability is determined by the ability of the cells to exclude propidium iodide (10 μg/mL by immunofluorescence analysis of emission wavelengths of 660-675 nm on a flow cytometer (BD FACScan). Alternatively, a high throughput calorimetric assay such as the Cell Titre 96 could be used. Aqueous Non-Radioactive Cell Proliferation Assay (Promega) may be used. Cell death by apoptosis is confirmed by pre-incubation of the cells with 50 μM of a caspase inhibitor such as zVAD-fmk.
Neutralisation of both Bcl-xL and Mcl-1 anti-apoptotic proteins in normal cells is required before a cell undergoes apoptosis via the downstream Bax/Bak pathway [Chen et al., 2005; Willis et al., 2005]. A compound that only targets Bcl-xL should not affect normal cells, but could kill certain cancer cells if they rely more on Bcl-xL and less on Mcl-1 for survival. To mirror this, compound 1 was tested for its effect on survival of wild type (wt) mouse embryo fibroblasts (MEFs), Bax/Bak double knockout (BB DKO) MEFs, MEFs that expressed Noxa, and MEFs that expressed Bad. Noxa specifically neutralizes Mcl-1.

[2] = target: GST tagged BCl-xL ΔC25 protein (Homo sapiens, UniProt Q07817); test: Alphascreen competition binding assay, GST tagged Bcl-xL vs biotinylated Bim BH3-26 peptide; conditions: competition with Bim BH3-26 peptide; unit inferred
Sequence of GST tagged BCl-xL ΔC25 protein (Q07817 1-208 limits assumed): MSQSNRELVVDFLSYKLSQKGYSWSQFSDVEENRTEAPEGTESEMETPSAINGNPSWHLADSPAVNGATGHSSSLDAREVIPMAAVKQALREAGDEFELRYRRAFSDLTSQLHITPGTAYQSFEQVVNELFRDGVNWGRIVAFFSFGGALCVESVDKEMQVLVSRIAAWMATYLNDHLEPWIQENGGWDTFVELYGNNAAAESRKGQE
Excerpt: as §2, §3, §4, §5, §6, §7, §8

Question: Which EC50 (SCLC cell line NCI-H889) does the source give for `CN(C)CC[C@H](CSc1ccccc1)Nc1ccc(S(=O)(=O)Nc2ncnc3cc(N4CCN(Cc5ccccc5-c5ccc(Cl)cc5)CC4)ccc23)cc1[N+](=O)[O-]` [Compound 1, N-{7-[4-(4′-Chloro-biphenyl-2-ylmethyl)-piperazin-1-yl]-quinazolin-4-yl}-4-((R)-3-dimethylamino-1-phenylsulfanylmethyl-propylamino)-3-nitro-benzenesulfonamide] here?
Answer: The EC50 was 0.21 µM.

Question: And the IC50 (GST tagged Mcl-1 protein)?
Answer: Its IC50 is 9000 nM.

Question: And the EC50 (SCLC cell line NCI-H1963)?
Answer: Its EC50 is 0.17 µM.

Question: What about the EC50 (SCLC cell line NCI-H146) of the same molecule?
Answer: Its EC50 is 0.61 µM.

Question: And the “Selectivity of killing of Noxa-expressing MEFs versus MEFs where both Bcl-xL and Mcl-1 are protective (% viability)” value [1]?
Answer: Its value is “much more sensitive to killing”.

Question: What about the IC50 [2] of the same molecule?
Answer: The IC50 was 7 nM.
